Test results taken from paper PMC9632241 (Antiviral Research, 2022).

Molecular target: SARS-CoV-1 M^pro (Severe acute respiratory syndrome-related coronavirus, UniProt P0C6U8)
Test: biochemical

## CCOC(=O)/C=C/[C@H](C[C@@H]1CCNC1=O)NC(=O)[C@@H](CC(=O)[C@@H](NC(=O)c1cc(C)on1)C(C)C)Cc1ccc(F)cc1 [rupintrivir, 4-{2-(4-fluoro-benzyl)-6-methyl-5-[(5-methyl-isoxazole-3-carbonil)-amino]-4-oxo-heptanoylamino}-5-(2-oxo-pyrrolidin-3-yl)-pentanoicacidethylester]
  IC50: 66 µM
